Source: US11241442B2, “Methods of use for TRP channel antagonist-based combination cancer therapies” (President and Fellows of Harvard College, priority 2017, dated 2022)
Values belong to the compound of their own block, whether it stands above or below them.

Assays:
TRPA1 [1] = assay: [Ca2+]i by fura-2 in TRPA1-expressing MCF-10A 3D acini; assay type: cell-based; details: inner ECM-deprived region of MCF-10A acini
Procedure: (§1) For the measurement of [Ca^2+]i levels in cells cultured in 2D or 3D (in Matrigel), cells were stained with 3.5 μM fura-2-AM (Life Technology) in the presence of 2.5 mM probenecid (Sigma) and 0.02% Pluronic F-127 (Sigma) for 45 min at 37° C. The fura-2 fluorescence was measured in HBS solution containing 1.25 mM probenecid at 37° C. Fluorescence images of the cells were acquired through the Eclipse Ti-E microscope with ORCA-R2 cooled CCD camera and analyzed with Metafluor. The 340:380-nm ratio images were obtained on a pixel-by-pixel basis and were converted to Ca^2+ concentrations by in vivo calibration using 5 μM ionomycin as described previously (Nishida et al., Biochem. Biophys. Res. Commun., 262:350-354, 1999). 3D images are shown as one section from midstructure. For the measurement of [Ca^2+]i levels in cells cultured in suspension, cell clumps were dissociated with trypsin and [Ca^2+]i levels were determined by using Fluo-4 NW Calcium Assay Kit (Molecular Probes). Cells were stained with Fluo-4 according to the manufacturer's instructions and subjected to flow cytometric analysis (FACSCalibur) using HBS as sheath fluid. [Ca^2+]i levels determined by flow cytometry are reported as mean fluorescence intensity expressed in arbitrary units. Time courses of [Ca^2+]i rises in 2D culture are representative of three independent experiments and averaged Δ[Ca^2+]i represents mean±SEM from the sum of three independent experiments. Fura-2 ratio images in 3D culture are representative of two independent experiments and averaged [Ca^2+]i in 3D culture represents mean±SEM from the sum of two independent experiments.

MCF-10A cells = assay: [H2O2]i by peroxy green-1 flow cytometry in ECM-detached MCF-10A cells; assay type: cell-based; details: 1 mM NAC; 24 h after plating in non-adherent plates
Procedure: (§2) For the measurement of [H2O2]i levels in MCF-10A acini and HCC1569 spheroids, cells were transduced with a lentiviral vector encoding Hyper-2 or Hyper-2 (C199S). The Hyper-2 fluorescence was measured at 37° C. in HEPES-buffered saline (HBS) containing the following (in mM): 150 NaCl, 6 KCl, 1.2 MgSO4, 2 CaCl2, 11.5 glucose, and 25 HEPES (pH adjusted to 7.4 with NaOH). Fluorescence images of the cells were acquired through the Eclipse Ti-E microscope (Nikon) with ORCA-R2 cooled CCD camera (Hamamatsu Photonics) and analyzed with Metafluor image acquisition software (Molecular Devices). The 488:405-nm ratio images were obtained on a pixel-by-pixel basis. 3D images are shown as one section from midstructure. For the measurement of [H2O2]i levels in MCF-10A cells cultured in suspension, cell clumps were dissociated with trypsin and stained with 10 μM peroxy green-1 for 30 min at 37° C. Cells were then subjected to flow cytometric analysis (FACSCalibur; BD Biosciences). ROS levels determined by flow cytometry are reported as mean fluorescence intensity expressed in arbitrary units. Hyper-2 ratio images are representative from two independent experiments and averaged Hyper-2 ratio represents mean±SD from the sum of two independent experiments.

TRPA1 [2] = target: T1, TRPA1 (Homo sapiens, UniProt O75762); assay: [Ca2+]i by fura-2 in HCC1569 spheroids; assay type: cell-based; details: AP-18, 300 nM A-967079 or 5 mM NAC
T1 construct: endogenous in cells; host or cells: HCC1569 breast cancer cells (2D culture or 3D spheroids; shGFP or shTRPA1 transduced)
T1 sequence (O75762 whole entry): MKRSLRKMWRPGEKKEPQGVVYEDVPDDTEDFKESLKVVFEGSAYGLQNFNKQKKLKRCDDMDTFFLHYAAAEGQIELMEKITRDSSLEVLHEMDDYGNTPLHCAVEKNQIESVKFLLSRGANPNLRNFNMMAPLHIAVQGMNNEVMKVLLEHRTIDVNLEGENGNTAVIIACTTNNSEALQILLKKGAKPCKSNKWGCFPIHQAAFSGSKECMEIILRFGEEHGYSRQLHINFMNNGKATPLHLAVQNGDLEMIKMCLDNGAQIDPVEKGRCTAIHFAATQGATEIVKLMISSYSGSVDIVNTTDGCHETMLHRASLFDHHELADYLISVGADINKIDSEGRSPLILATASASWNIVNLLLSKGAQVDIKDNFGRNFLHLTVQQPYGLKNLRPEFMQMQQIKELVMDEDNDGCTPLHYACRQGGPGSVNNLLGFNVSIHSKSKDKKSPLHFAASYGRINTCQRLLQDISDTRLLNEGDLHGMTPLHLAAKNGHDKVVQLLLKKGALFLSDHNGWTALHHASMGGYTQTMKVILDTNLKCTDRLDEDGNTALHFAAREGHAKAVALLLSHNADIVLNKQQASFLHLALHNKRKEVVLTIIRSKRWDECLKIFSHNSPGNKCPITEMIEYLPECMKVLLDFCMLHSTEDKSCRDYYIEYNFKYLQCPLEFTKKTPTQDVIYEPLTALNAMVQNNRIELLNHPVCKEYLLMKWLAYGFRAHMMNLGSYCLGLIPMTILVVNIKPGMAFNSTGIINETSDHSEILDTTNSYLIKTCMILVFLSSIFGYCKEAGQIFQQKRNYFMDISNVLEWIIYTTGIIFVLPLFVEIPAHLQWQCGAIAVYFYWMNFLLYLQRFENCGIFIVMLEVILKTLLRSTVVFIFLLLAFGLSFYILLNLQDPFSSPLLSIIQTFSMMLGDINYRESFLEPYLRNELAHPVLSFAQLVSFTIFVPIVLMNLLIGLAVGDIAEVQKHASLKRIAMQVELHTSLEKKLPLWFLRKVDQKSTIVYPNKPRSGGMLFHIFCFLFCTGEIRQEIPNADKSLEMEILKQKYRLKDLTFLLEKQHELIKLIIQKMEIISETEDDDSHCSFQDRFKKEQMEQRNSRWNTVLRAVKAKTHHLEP
Procedure: as §1

HCC1569 cells [3] = assay: Live cell number and cell death under carboplatin in HCC1569 cells; assay type: cell-based; details: carboplatin 72 h
Procedure: For the measurements of live cell number and cell death under treatment with H2O2, diamide, or chemotherapies, cells were cultured on 96-well plates in the presence or absence of these drugs for indicated times and stained with 5 μM bisBenzimide H 33342 trihydrochloride (Hoechst; Sigma) and 5 μM propidium iodide (PI; Sigma) for 1 h at 37° C. Hoechst- and/or PI-positive cells were counted using a laser scanning cytometer, Acumen Cellista (TTPLabTech). Apoptotic cells induced by H2O2 treatment were measured by staining with Annexin V-Alexa Fluor® 488 conjugate (Life Technologies) and PI in Ca^2+-containing solution (10 mM HEPES pH 7.4, 140 mM NaCl; 2.5 mM CaCl2), followed by flow cytometric measurement of fluorescence using a FACSCalibur. Flow cytometry plots are representative of three independent experiments. For the counting of viable cells cultured in suspension, cell clumps were dissociated with trypsin and stained with trypan blue. Viable cells were counted using the Countless Automated Cell Counters (Thermo Fisher Scientific). For the measurement of percentage of dead cells cultured in suspension, cells were cultured on poly HEMA-coated 96-well plates and stained with 5 μM Hoechst and 5 μM PI for 1 h at 37° C. without enzymatic dissociation of cell clumps. Hoechst- and/or PI-positive areas were measured using Acumen Cellista. Apoptotic cells induced by detachment were measured by staining with 5 μM Hoechst and 5 μM of CellEvent™ Caspase-3/7 Green Detection Reagent (Thermo Fisher Scientific) for 1 h at 37° C. without enzymatic dissociation of cell clumps. Hoechst- and/or CellEvent™ Caspase-3/7 Green Detection Reagent-positive areas were measured using Acumen Cellista. For the cell cycle analysis, enzymatically dissociated cells were fixed with ice-cold 70% EtOH for at least 30 min at 4° C., washed three times with PBS at 4° C., resuspended in PBS, treated with 100 μg/ml RNase A (Sigma), and stained with 50 μg/ml PI. The stained samples were subjected to flow cytometric analysis (FACSCalibur).

HCC1569 spheroids = assay: [H2O2]i by Hyper-2 in HCC1569 spheroids; assay type: cell-based; details: AP-18, 300 nM A-967079 or 5 mM NAC
Procedure: as §2

TRPA1 [4] = target: T1, TRPA1; assay: [Ca2+]i by Fluo-4 flow cytometry in ECM-detached TRPA1-expressing MCF-10A cells; assay type: cell-based; details: 1 mM NAC; 24 h after plating in non-adherent plates
Procedure: as §1, with “Time courses of [Ca^2+]i rises in 2D culture are representative of three independent experiments and averaged Δ[Ca^2+]i represents mean±SEM from the sum of three independent experiments. Fura-2 ratio images in 3D culture are representative of two independent experiments and averaged [Ca^2+]i in 3D culture represents mean±SEM from the sum of two independent experiments.” left out

MCF-10A acini = assay: [H2O2]i by Hyper-2 in MCF-10A 3D acini; assay type: cell-based
Procedure: as §2

[5] = test system: MCF-10A cells expressing HER2; assay: Soft agar colony formation of MCF-10A cells expressing HER2; assay type: cell-based
Procedure: (§3) Cells were added to the regular MCF-10A or HCC1569 growth media (±AP-18, A-967079, or Trolox) plus 0.4% low-melt agarose (Sigma) and layered onto a bed of growth media plus 0.5% low-melt agarose. Cells were fed every 4 days with growth media (±AP-18, A-967079, or Trolox) plus 0.4% low-melt agarose. At the indicated times, viable colonies were stained with iodonitrotetrazolium chloride (Sigma). Colony number and colony size were determined using ImageJ. Images shown are representative of at least three independent experiments.

TRPA1 [6] = target: T1, TRPA1; assay: Ca2+ responses to carboplatin in HCC1569 cells; assay type: cell-based; details: 10 μM AP-18 or 300 nM A-967079
Procedure: as §1

HCC1569 cells [7] = assay: Soft agar anchorage-independent growth of HCC1569 cells; assay type: cell-based
Procedure: as §3

[8] = in vivo; cited from earlier work
[9] = test system: EL-12-58 xenograft tumors; assay: EL-12-58 xenograft tumor growth in NRG mice; assay type: in vivo
HCC1569 cells [10] = assay: HCC1569 xenograft tumor growth in NRG mice; assay type: in vivo
Procedure: All animal studies were performed according to protocols approved by the Institutional Animal Care and Use Committee, the Standing Committee on Animals at Harvard University. One million HCC1569 cells stably expressing either TRPA1 or GFP (control) shRNAs were injected into cleared mammary fatpads of 8-week-old female NOD-Rag1^null IL2rg^null (NRG) mice. Tumor volume (mm^3) was monitored by caliper measurements in two perpendicular dimensions (the formula: (d^2×D)/2, where d and D represent the shortest and longest diameters, respectively) at the indicated time points. After tumors reached 3 to 5 mm in diameter, animals were randomized into the following treatment arms: (i) 37.5 mg/kg carboplatin or (ii) its vehicle (H2O) administrated via intraperitoneal injection for HCC1569 cell-transplanted animals; (i) oral administration of 30.0 mg/kg AM-0902, (ii) intraperitoneal administration of 37.5 mg/kg carboplatin, (iii) oral administration of 30.0 mg/kg AM-0902 plus intraperitoneal administration of 37.5 mg/kg carboplatin, or (iv) oral administration of 1% Tween 80/2% HPMC/97% water/methanesulfonic acid pH 2.2 (vehicle for AM-0902) plus intraperitoneal administration of H2O (vehicle for carboplatin) for EL-12-58 cell-transplanted animals. Power calculations are based on the standard deviation and effect size from pilot experiments in HCC1569 cells. […]
Unstained breast cancer and normal breast tissue arrays were purchased from US Biomax (BR1504a for breast tumors, BN08111 for normal breast tissues). […] Tumor slides stained for TRPA1, blinded and were evaluated by light microscopy and scored by a veterinary pathologist. Images of tissue sections were captured at 4× magnification to create a merged image of the entire section and at 20× magnification for quantification of cleaved caspase-3-positive nuclei, using a Olympus VS120 Slide Scanner. […] Relative apoptosis was quantified by determining the percentage of cleaved caspase-3-positive cells from more than five random fields, per section, from each tumor in the group, and normalized to the shGFP-expressing tumors treated with vehicle. […]

[11] = Weight loss of EL-12-58 xenograft animals; assay type: in vivo, mice; details: mean±SD
Procedure: All animal studies were performed according to protocols approved by the Institutional Animal Care and Use Committee, the Standing Committee on Animals at Harvard University. One million HCC1569 cells stably expressing either TRPA1 or GFP (control) shRNAs were injected into cleared mammary fatpads of 8-week-old female NOD-Rag1^null IL2rg^null (NRG) mice. Tumor volume (mm^3) was monitored by caliper measurements in two perpendicular dimensions (the formula: (d^2×D)/2, where d and D represent the shortest and longest diameters, respectively) at the indicated time points. After tumors reached 3 to 5 mm in diameter, animals were randomized into the following treatment arms: (i) 37.5 mg/kg carboplatin or (ii) its vehicle (H2O) administrated via intraperitoneal injection for HCC1569 cell-transplanted animals; (i) oral administration of 30.0 mg/kg AM-0902, (ii) intraperitoneal administration of 37.5 mg/kg carboplatin, (iii) oral administration of 30.0 mg/kg AM-0902 plus intraperitoneal administration of 37.5 mg/kg carboplatin, or (iv) oral administration of 1% Tween 80/2% HPMC/97% water/methanesulfonic acid pH 2.2 (vehicle for AM-0902) plus intraperitoneal administration of H2O (vehicle for carboplatin) for EL-12-58 cell-transplanted animals. Power calculations are based on the standard deviation and effect size from pilot experiments in HCC1569 cells. The sample size of seven mice per group provides greater than 95% power to detect a ˜80% difference in change in tumor volume between control and shTRPA1-treated cells with a two-sided type I error rate of 5%. Averaged tumor volume represents mean±SEM.

HCC1569 cells [12] = details: cited from earlier work

elevated [Ca2+]i of inner cells of spheroids (TRPA1 [2]): suppressed
detachment-induced TRPA1-dependent increase in [Ca2+]i (TRPA1 [4]): abolished
Compound: CC(=O)N[C@@H](CS)C(=O)O [NAC, N-Acetyl-L-cysteine]
TRPA1- or E681K-induced [Ca2+]i rises (TRPA1 [1]): abolished
detachment-induced increase in [H2O2]i (MCF-10A cells): suppressed
TRPA1-mediated chemoresistance to carboplatin (HCC1569 cells [3]; 5 mM NAC): largely eliminated
increase in [H2O2]i (Hyper-2) in inner region of spheroids (HCC1569 spheroids): abolished
increase in [H2O2]i (Hyper-2) in inner ECM-deprived cells (MCF-10A acini): abolished

Compound: Cc1c(C)c2c(c(C)c1O)CCC(C)(C(=O)O)O2 (stereo not drawn) [Trolox]
colony number and size ([5]; Trolox treatment): strongly increased
TRPA1-induced increase in number and average size of colonies ([5]; wild-type or E681K TRPA1 expression): eliminated

[Ca2+]i rises upon carboplatin treatment (TRPA1 [6]): significantly suppressed
oscillatory Ca2+ responses upon carboplatin treatment (TRPA1 [6]): significantly suppressed
elevated [Ca2+]i of inner cells of spheroids (TRPA1 [2]): suppressed
Compound: CCC(=N\O)/C(C)=C/c1ccc(F)cc1 [A-967079]
TRPA1- or E681K-induced [Ca2+]i rises (TRPA1 [1]): abolished
cell death in response to carboplatin treatment (HCC1569 cells [3]): enhanced
live cell number in response to carboplatin treatment (HCC1569 cells [3]): substantially suppressed
increase in [H2O2]i (Hyper-2) in inner region of spheroids (HCC1569 spheroids): unaffected
increase in [H2O2]i (Hyper-2) in inner ECM-deprived cells (MCF-10A acini): unaffected
anchorage-independent growth (number and average size of colonies) (HCC1569 cells [7]): impaired

Compound: Cn1cnc2ncn(Cc3nc(CCc4ccc(Cl)cc4)no3)c(=O)c21 [AM-0902]
plasma half-life (T1/2) [8]: 2.8 h
tumor volume / tumor growth ([9]; AM-0902 30.0 mg/kg oral twice daily, carboplatin 37.5 mg/kg intraperitoneal): reduced
tumor mass ([9]; at end point, AM-0902 30.0 mg/kg oral twice daily, carboplatin 37.5 mg/kg intraperitoneal): reduced
live tumor cell area relative to total area (H&E) ([9]; compared with vehicle or single carboplatin treatment): reduced

Compound: N.N.O=C([O-])C1(C(=O)[O-])CCC1.[Pt+2] [carboplatin]
tumor response to carboplatin (HCC1569 cells [10]; tumors expressing shGFP (control), 37.5 mg/kg carboplatin intraperitoneal twice a week): resistant
tumor growth after carboplatin treatment (HCC1569 cells [10]; tumors expressing shTRPA1, 37.5 mg/kg carboplatin intraperitoneal twice a week): significant reduction
apoptosis (cleaved caspase-3 staining of tumor sections) (HCC1569 cells [10]; tumors expressing shTRPA1, carboplatin treatment): increased
averaged weight loss ([11]; day 26): 3.94±1.02%
averaged weight loss ([11]; day 29): 7.01±2.80%
averaged weight loss ([11]; day 32): 10.3±3.36%

Compound: N.N.[Cl][Pt][Cl] [cisplatin]
Resistance rank among 893 cancer cell lines (HCC1569 cells [12]): 45
resistance z-score (HCC1569 cells [12]): 1.54
